# Source: PubChem BioAssay (NCI)
# “And” between values parts separate entries of the source, which are not always exact repeats. Identical values can stand only once.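 Briefly, cells in 96-well plates were exposed to five compound concentrations for 48 h, and endpoints were estimated by linear interpolation. GI50 is the concentration that inhibits growth by half. TGI: total growth inhibition.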
# Assays:
# Assay in all cases: DTP human tumour cell line panel, 48 h
# MDA-MB-231 breast = tested on: MDA-MB-231 breast
# A549 NSCLC = tested on: A549 NSCLC
# MOLT-4 leukemia = tested on: MOLT-4 leukemia
# MCF7 breast = tested on: MCF7 breast
# HL-60(TB) leukemia = tested on: HL-60(TB) leukemia
# CAKI-1 renal = tested on: CAKI-1 renal
# IGROV1 ovarian = tested on: IGROV1 ovarian
# 786-0 renal = tested on: 786-0 renal
# LOX IMVI melanoma = tested on: LOX IMVI melanoma
# EKVX NSCLC = tested on: EKVX NSCLC
Structure (SMILES),TGI (MDA-MB-231 breast),TGI (A549 NSCLC),TGI (MOLT-4 leukemia),TGI (MCF7 breast),TGI (HL-60(TB) leukemia),TGI (CAKI-1 renal),TGI (IGROV1 ovarian),TGI (786-0 renal),TGI (LOX IMVI melanoma),GI50 (MDA-MB-231 breast),GI50 (A549 NSCLC),GI50 (MOLT-4 leukemia),GI50 (EKVX NSCLC),TGI (EKVX NSCLC),GI50 (MCF7 breast),GI50 (HL-60(TB) leukemia),GI50 (CAKI-1 renal),GI50 (IGROV1 ovarian),GI50 (786-0 renal),GI50 (LOX IMVI melanoma)
CC(=C/C=C/C=C(C)\C=C\C=C(\C)C(=O)O)/C=C/C=C(/C)C(=O)O,> 100 µM,> 100 µM,> 100 µM,> 100 µM,> 100 µM,> 100 µM,> 100 µM,> 100 µM,> 100 µM,,,,,,,,,,,
Cc1cc(O)cc2c1[C@]1(C)CCC3C(C)(C)CCC[C@]3(C)[C@H]1C2 (stereo not given in full),38.5 µM,42.1 µM,98.6 µM,33.3 µM,> 100 µM,31.9 µM,36.9 µM,34.3 µM,35.8 µM,22 µM,22.7 µM,28.1 µM,19.9 µM,36.6 µM,18.6 µM,32.4 µM,18.1 µM,20.5 µM,19.4 µM,19.5 µM
COc1cccc(/C=C/[N+](=O)[O-])c1,20.8 µM,25.4 µM,11.9 µM,3.93 µM,5.77 µM,,6.51 µM,4.06 µM,3.12 µM,6.41 µM,5.06 µM,3.06 µM,19 µM,76.2 µM,1.2 µM,2.31 µM,,2.4 µM,1.9 µM,1.66 µM
COc1ccc(-c2oc(=O)ccc2-c2cc(OC)c(OC)c(OC)c2)cc1O,> 100 µM,> 100 µM,> 100 µM,> 53.6 µM,2.03 µM,> 80.8 µM,,> 75.7 µM,45.3 µM,2.8 µM,3.41 µM,2.01 µM,6.98 µM,> 100 µM,0.421 µM,0.407 µM,3.08 µM,,2.62 µM,1.65 µM
O=c1cc(N2CCN(CCCCCOc3cc(O)c4c(=O)cc(-c5ccccc5)oc4c3)CC2)c2ccccc2o1,> 100 µM,> 100 µM,,> 100 µM,> 100 µM,> 100 µM,> 100 µM,> 100 µM,> 100 µM,13.1 µM,> 100 µM,,> 100 µM,> 100 µM,83.1 µM,17.5 µM,> 100 µM,47.4 µM,6.92 µM,51.2 µM
Cc1nc2sc(C(=O)Nc3cccc4ccccc34)c(N)c2cc1C(O)c1ccccc1 (stereo not given),5.36 µM,> 100 µM,> 65.7 µM,13.4 µM,0.194 µM,12 µM,12.4 µM,9.69 µM,6.67 µM,0.15 µM,0.0916 µM,0.0796 µM,0.375 µM,37.5 µM,0.0373 µM,0.0376 µM,0.0583 µM,0.0651 µM,0.123 µM,0.0568 µM
C#CC1(OC(C)=O)CCC2C3CC=C4C=C(OC(C)=O)CCC4(C)C3CCC21C (stereo not given),58.3 µM,> 100 µM,33.3 µM,49.9 µM,> 100 µM,83.2 µM,35.9 µM,85.5 µM,53.2 µM,,,,,80 µM,,,,,,
C=C1C(C2(C)C(OC(C)=O)CC(=O)OC(C)(COC(C)=O)C2CC(=O)OC)C(OC=O)C(OC(=O)C(O)C(C)CC)C2(C)C(c3ccoc3)CC(=O)C12O (stereo not given),> 100 µM,> 100 µM,> 100 µM,> 100 µM,0.414 µM,11.7 µM,> 100 µM,> 100 µM,> 100 µM,,,,,> 100 µM,,,,,,
C/C(=N\Nc1cc(C)c2ccccc2n1)c1ccccn1,1.66 µM,1.17 µM,0.489 µM,1.16 µM,0.155 µM,0.544 µM,1.49 µM,1.27 µM,1.31 µM,< 0.0283 µM,0.0714 µM,< 0.0381 µM,,,0.0894 µM,< 0.0365 µM,,,0.135 µM,0.0807 µM
O=C1c2ccccc2-c2oc(=O)c3ccccc3c21,> 100 µM,,> 100 µM,> 100 µM,> 100 µM,> 100 µM,> 100 µM,> 100 µM,> 100 µM,,,,,> 100 µM,,,,,,
CCOC(=O)NC1C2CC(=O)OC(O2)C1OC(C)=O (stereo not given),> 100 µM,> 100 µM,> 100 µM,> 100 µM,> 100 µM,> 100 µM,> 100 µM,> 100 µM,> 100 µM,> 100 µM,,,,> 100 µM,> 100 µM,> 100 µM,,,,
COc1cc2c(cc1OC)-c1ccc3cc4c(cc3c1N(CCCn1ccnc1)C2)OCO4,18.8 µM,32.1 µM,> 100 µM,74.1 µM,5.71 µM,,29.9 µM,32.8 µM,4.7 µM,3.34 µM,8.39 µM,0.467 µM,31.9 µM,> 100 µM,0.364 µM,1.92 µM,,3.61 µM,6.04 µM,1.62 µM
C=C(CN1CCN(c2cccc(C(F)(F)F)n2)CC1)c1ccc(C(=O)Nc2ccccc2N)cc1,34.2 µM and > 72.7 µM,> 100 µM,> 100 µM,> 100 µM,1 µM and 2.13 µM,> 100 µM and 25.7 µM,26.9 µM and 7.29 µM,70 µM and 14 µM,> 100 µM,4.63 µM and 1.02 µM,3.33 µM and 0.39 µM,0.855 µM and 0.478 µM,24.3 µM and 2.73 µM,> 100 µM,0.349 µM and 0.293 µM,0.322 µM and 0.297 µM,0.512 µM and 0.52 µM,2.01 µM and 0.365 µM,1.97 µM and 0.705 µM,1.5 µM and 0.496 µM
c1ccc2c(NCCCCCCNc3c4ccccc4nc4ccccc34)c3ccccc3nc2c1,2.05 µM,2.89 µM,0.212 µM,2.07 µM,,7.87 µM,,2.08 µM,1.45 µM,,,,,5.69 µM,,,,,,
Cc1ccc2c(-c3ccnc(Nc4ccccc4)n3)c(-c3ccc(F)cc3)nn2n1,> 25 µM,> 25 µM,> 25 µM,> 25 µM,> 25 µM,> 25 µM,16.5 µM,20.8 µM,> 25 µM,8.25 µM,5.28 µM,13.4 µM,6.53 µM,> 25 µM,7.44 µM,9.56 µM,1.41 µM,1.13 µM,4.84 µM,5.92 µM
CC(=O)N1C/C(=C/c2ccc(Cl)cc2)C(=O)/C(=C/c2ccc(Cl)cc2)C1,3.23 µM,4.5 µM,7.58 µM,1.13 µM,3.95 µM,8.5 µM,2.11 µM,1.87 µM,0.395 µM,1.15 µM,0.633 µM,0.249 µM,,,0.292 µM,0.924 µM,2.53 µM,0.761 µM,0.575 µM,0.184 µM
C[C@]12CC[C@H](OC3OC(CO)C(O)C(O)C3O)C[C@H]1CC[C@@H]1[C@@H]2CC[C@]2(C)[C@@H](C3=CCOC3=O)CC[C@]12O (stereo not given in full),> 100 µM,50 µM and > 100 µM,50 µM and > 100 µM,47.2 µM and > 100 µM,28 µM and > 100 µM,,50 µM and > 100 µM,> 100 µM,25.3 µM and > 100 µM,,> 100 µM and 84.5 µM,22.5 µM and > 100 µM,> 100 µM,29.3 µM and > 100 µM,> 100 µM,> 100 µM,,> 100 µM,15.4 µM,> 100 µM
CNC(=S)NC(=O)c1c(Cl)n(C(=O)OC(C)(C)C)c2ccccc12,> 100 µM,> 100 µM,,> 100 µM,> 100 µM,69.9 µM,> 100 µM,> 100 µM,> 100 µM,33.7 µM,84.3 µM,,39.7 µM,> 100 µM,28.3 µM,79.7 µM,21.2 µM,21 µM,91.1 µM,30 µM
COc1cc(Nc2nc3ccccc3nc2NS(=O)(=O)c2ccc(NC(=O)c3ccc(C)c(OC)c3)cc2)cc(OC)c1,46.2 µM and > 100 µM and > 7 µM,> 100 µM and 80.4 µM and > 9.12 µM,45.7 µM and 43.3 µM and > 10 µM,> 100 µM,38 µM and 52.9 µM and > 8.02 µM,> 100 µM and 73.8 µM and > 6.67 µM,,74.1 µM and > 7.32 µM,> 100 µM,,4.38 µM and 13.3 µM and 1.79 µM,4.58 µM and 14.4 µM and 2.25 µM,4.62 µM and 0.935 µM,,,,,,,
Cc1ccc(NC2=C(Cl)C(=O)N(Cc3ccc(Cl)cc3)C2=O)cc1O,32.4 µM,29.2 µM,> 100 µM,27.5 µM,> 100 µM,18 µM,33 µM,18.8 µM,32.1 µM,9.75 µM,10.5 µM,> 100 µM,,,6.73 µM,54.8 µM,2.79 µM,11.2 µM,0.753 µM,4.09 µM
CNC/C(Cl)=N/S(=O)(=O)c1ccc(C)cc1,28.5 µM,51.4 µM,,23.7 µM,,26.2 µM,91.2 µM,25.2 µM,27.3 µM,,,,,40.4 µM,,,,,,
N#Cc1ccc2c(c1)C(=O)c1c-2n(CCCCl)c(=O)c2cc([N+](=O)[O-])ccc12,> 100 µM,,5.26 µM,> 100 µM,29.9 µM,> 100 µM,53.3 µM,7.88 µM,14.8 µM,77.5 µM,,1.34 µM,50.4 µM,> 100 µM,0.38 µM,11.4 µM,18 µM,3.95 µM,2.46 µM,2.28 µM
